Values of other authors in patent publication US20130266557A1, “METHODS FOR TREATMENT OF A SARCOMA USING AN EPIMETABOLIC SHIFTER (COENZYME Q10)” (priority 2009, published 2013).

System: cancer
Conditions: Mazzio 2006; cited from earlier work

SMILES: COC1=C(OC)C(=O)C(C)=CC1=O [DMBQ, 2,3-dimethoxy-5-methyl-1,4-benzoquinone, reference compound]
- Potency as an anti-cancer agent relative to CoQ10: > 1000 times
